Assay results taken from EP4610269A1, “UROKINASE PLASMINOGEN ACTIVATOR SURFACE RECEPTOR (UPAR) LIGANDS FOR DIAGNOSTIC OR THERAPEUTIC USE” (3B Pharmaceuticals GmbH, priority 2024, dated 2025).
Like-named read-outs stand apart in the source and are kept apart here. *1 amine or outer side, *2 acyl side, *3 side chain or, on linkers, in order; H or OH if unused. Where a SMILES comes first, the peptide text is derived from it. Bridges are numbered along the chain shown (N, C = ends). Side-chain parts run from the residue outwards. [ ]: non-standard residue; d: D form. The star is where a group is joined. X3 = NC(=O)[C@H](CCCCNC(=O)CN1CCN(CC(=O)O)CCN(CC(=O)O)CCN(CC(=O)O)CC1)NC(=O)CCC(=O)NCCCOCCOCCOCCCN*; DOTA = O=C(O)CN1CCN(CC(=O)O)CCN(CC(=O)*)CCN(CC(=O)O)CC1; Pro(cis-4-F) = O=C(O)[C@@H]1C[C@H](F)CN1; 1Nal = N[C@@H](Cc1cccc2ccccc12)C(=O)O; Gly(cPent) = N[C@H](C(=O)O)C1CCCC1; cisHyp = O=C(O)[C@@H]1C[C@H](O)CN1; Hyp = O=C(O)[C@@H]1C[C@@H](O)CN1; 3Pal = N[C@@H](Cc1cccnc1)C(=O)O; Pentanoyl(4-Me) = CC(C)CCC(=O)*; Cit = NC(=O)NCCC[C@H](N)C(=O)O; Propanoyl(3-OEt) = CCOCCC(=O)*; Cysteamide = C(CS[*:3])N[*:1]; Butoxycarbonyl = CCCCOC(=O)*; Phg = N[C@H](C(=O)O)c1ccccc1; hSer = N[C@@H](CCO)C(=O)O; NMeA = CN[C@@H](C)C(=O)O; Thz = O=C(O)[C@@H]1CSCN1; Api = NC1(C(=O)O)CCNCC1; Nva = CCC[C@H](N)C(=O)O; Hexanoyl = CCCCCC(=O)*; Pentanoyl = CCCCC(=O)*

Tests used:
[1] = target: T1, uPAR-expressing HEC-265 human endometrial adenocarcinoma cells (Homo sapiens, UniProt Q03405); experiment: Competitive FACS binding assay; settings: pIC50 category of FACS binding
T1 construct: Cell surface uPAR-expressing HEC-265 human endometrial adenocarcinoma cells; host or cells: HEC-265
T1 sequence (Q03405 23-335): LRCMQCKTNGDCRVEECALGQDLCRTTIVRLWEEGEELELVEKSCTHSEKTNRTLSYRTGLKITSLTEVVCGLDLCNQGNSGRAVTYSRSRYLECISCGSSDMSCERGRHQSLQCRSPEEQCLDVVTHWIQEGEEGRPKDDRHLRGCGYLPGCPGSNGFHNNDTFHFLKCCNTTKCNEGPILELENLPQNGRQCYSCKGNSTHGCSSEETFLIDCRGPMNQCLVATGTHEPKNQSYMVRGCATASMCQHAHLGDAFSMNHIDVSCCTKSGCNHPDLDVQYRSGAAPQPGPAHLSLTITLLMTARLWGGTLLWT
Procedure, shortened: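 HEC-265 cells incubated 1 h at 4 °C with 10 nM biotinylated uPAR peptide tracer plus increasing test compound, then stained with APC-streptavidin on ice. Median APC fluorescence by flow cytometry; 4PL fit gives pIC50.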

human uPAR (uPAR-Fc) = target: T2, human uPAR (uPAR-Fc) (Homo sapiens, UniProt Q03405); experiment: Surface plasmon resonance (SPR) assay, single cycle kinetics; format: binding; settings: pKD category for uPAR SPR activity assay, uPAR-Fc on Protein A-Chip, 25°C, read-out: pKD CAT (converted)
T2 construct: comprising amino acids Leu23-Arg303 according to UniProt entry Q03405.1; purchased R&D Systems 10378-UK-100
T2 sequence (Q03405 23-303): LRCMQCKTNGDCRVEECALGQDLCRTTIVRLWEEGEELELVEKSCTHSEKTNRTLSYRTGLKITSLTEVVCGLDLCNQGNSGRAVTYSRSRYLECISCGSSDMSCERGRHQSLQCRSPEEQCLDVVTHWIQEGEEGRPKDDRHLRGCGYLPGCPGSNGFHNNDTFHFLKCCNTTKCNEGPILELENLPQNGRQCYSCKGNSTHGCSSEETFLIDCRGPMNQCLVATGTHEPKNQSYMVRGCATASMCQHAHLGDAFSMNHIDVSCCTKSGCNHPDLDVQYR
Procedure, shortened: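 uPAR-Fc (Leu23-Arg303 extracellular domains, human IgG1 Fc) captured on Protein A chip to ~2000 RU; single-cycle kinetics at 25°C in HEPES running buffer pH 7.4 with 0.1% DMSO. KD from double-referenced sensorgrams fitted to 1:1 Langmuir model, reported as pKD.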

SMILES	IC50 [1]	Kd (human uPAR (uPAR-Fc); single cycle kinetics)	Kd (human uPAR (uPAR-Fc))
CC(C)CCC(=O)N[C@H]1CSSC[C@@H](C(N)=O)NC(=O)[C@H](CC(C)C)NC(=O)[C@H](C2CCCC2)NC(=O)[C@@H](C)NC(=O)[C@@H]2CCCN2C(=O)[C@H](Cc2ccccc2)NC(=O)[C@H](Cc2ccc(O)cc2)NC(=O)[C@H](CCC(N)=O)NC(=O)[C@H](CCCNC(N)=O)NC1=O [UPAR-349, iHex-[Cys-Cit-Gln-Tyr-Phe-Pro-ala-Cpg-Leu-Cys]-NH2] ({Pentanoyl(4-Me)}-C[Cit]QYFP[dA][Gly(cPent)]LC-NH2; disulfide 1-10)	≤ 10 nM	1.58 to 10 nM	–
CC[C@H](C)[C@@H]1NC(=O)[C@@H](C)NC(=O)[C@@H]2CSCN2C(=O)[C@H](Cc2ccccc2)NC(=O)[C@H](Cc2ccc(O)cc2)NC(=O)[C@H](CCC(N)=O)NC(=O)[C@H](CCCNC(N)=O)NC(=O)[C@@H](NC(=O)CCC(C)C)CSSC[C@@H](C(N)=O)NC(=O)[C@H](CC(C)C)NC1=O [UPAR-375, iHex-[Cys-Cit-Gln-Tyr-Phe-Eaz-ala-Ile-Leu-Cys]-NH2] ({Pentanoyl(4-Me)}-C[Cit]QYF[Thz][dA]ILC-NH2; disulfide 1-10)	≤ 10 nM	< 1.58 nM	–
CCCCOC(=O)N[C@H]1CSSC[C@@H](C(N)=O)NC(=O)[C@H](CCC)NC(=O)[C@H]([C@@H](C)CC)NC(=O)[C@@H]2C[C@@H](O)CN2C(=O)[C@@H]2C[C@H](F)CN2C(=O)[C@H](Cc2ccccc2)NC(=O)[C@H](Cc2ccc(O)cc2)NC(=O)[C@H](CCCCNC(=O)[C@@H](CC(=O)O)NC(=O)CN2CCN(CC(=O)O)CCN(CC(=O)O)CCN(CC(=O)O)CC2)NC(=O)[C@H]([C@@H](C)O)NC1=O [UPAR-424, Butoc-[Cys-Thr-Lys(DOTA-asp)-Tyr-Phe-4Cfp-Hyp-Ile-Nva-Cys]-NHz] (Butoxycarbonyl-CTK([dD-DOTA])YF[Pro(cis-4-F)][Hyp]I[Nva]C-NH2; disulfide 1-10)	≤ 10 nM	< 1.58 nM	–
CCCCC(=O)N[C@H]1CSSC[C@@H](C(N)=O)NC(=O)[C@H](CCC)NC(=O)[C@H]([C@@H](C)CC)NC(=O)[C@@H]2C[C@@H](O)CN2C(=O)[C@@H]2CCCN2C(=O)[C@H](Cc2cccnc2)NC(=O)[C@H](Cc2ccc(O)cc2)NC(=O)[C@H](CCCCNC(=O)CN2CCN(CC(=O)O)CCN(CC(=O)O)CCN(CC(=O)O)CC2)NC(=O)[C@H](CCCNC(N)=O)NC1=O [UPAR-253, Pent-[Cys-Cit-Lys(DOTA)-Tyr-Mpa-Pro-Hyp-Ile-Nva-Cys]-NH2] (Pentanoyl-C[Cit]K(DOTA)Y[3Pal]P[Hyp]I[Nva]C-NH2; disulfide 1-10)	≤ 10 nM	–	1.58 to 10 nM
CCCCOC(=O)N[C@H]1CSSC[C@@H](C(N)=O)NC(=O)[C@H](CCO)NC(=O)[C@H]([C@@H](C)CC)NC(=O)[C@@H]2C[C@@H](O)CN2C(=O)[C@@H]2C[C@H](F)CN2C(=O)[C@H](Cc2ccccc2)NC(=O)[C@H](Cc2ccc(O)cc2)NC(=O)[C@H](CCCCNC(=O)CN2CCN(CC(=O)O)CCN(CC(=O)O)CCN(CC(=O)O)CC2)NC(=O)[C@H]([C@@H](C)O)NC1=O [UPAR-368, Butoc-[Cys-Thr-Lys(DOTA)-Tyr-Phe-4Cfp-Hyp-Ile-Hse-Cys]-NH2] (Butoxycarbonyl-CTK(DOTA)YF[Pro(cis-4-F)][Hyp]I[hSer]C-NH2; disulfide 1-10)	≤ 10 nM	10 to 100 nM	–
CCCCC(=O)N[C@H]1CSSC[C@@H](C(N)=O)NC(=O)[C@H](CCC)NC(=O)[C@H]([C@@H](C)CC)NC(=O)[C@@H]2C[C@@H](O)CN2C(=O)[C@@H]2CCCN2C(=O)[C@H](Cc2ccccc2)NC(=O)[C@H](Cc2ccc(O)cc2)NC(=O)[C@H](CCC(N)=O)NC(=O)C2(CCNCC2)NC1=O [UPAR-186, Pent-[Cys-Apc-Gln-Tyr-Phe-Pro-Hyp-Ile-Nva-Cys]-NH2] (Pentanoyl-C[Api]QYFP[Hyp]I[Nva]C-NH2; disulfide 1-10)	≤ 10 nM	–	< 1.58 nM
CCCCCC(=O)N[C@@H](CC(=O)O)C(=O)N[C@@H](CC(C)C)C(=O)N[C@H]1CSSC[C@@H](C(=O)NCCCOCCOCCOCCCNC(=O)CCC(=O)N[C@@H](CCCCNC(=O)CN2CCN(CC(=O)O)CCN(CC(=O)O)CCN(CC(=O)O)CC2)C(N)=O)NC(=O)[C@H](CC(C)C)NC(=O)[C@H]([C@@H](C)CC)NC(=O)[C@H](C)NC(=O)[C@@H]2CCCN2C(=O)[C@H](Cc2ccccc2)NC(=O)[C@H](Cc2ccc(O)cc2)NC(=O)[C@H](CCSC)NC(=O)[C@H](CCCNC(=N)N)NC1=O [UPAR-150, Hex-Asp-Leu-[Cys-Arg-Met-Tyr-Phe-Pro-Ala-Ile-Leu-Cys]-Ttds-Lys(DOTA)-NH2] (Hexanoyl-DLCRMYFPAILC-X3; disulfide 3-12)	39.8 to 100 nM	–	1.58 to 10 nM
CCCCC(=O)N[C@H]1CSSC[C@@H](C(=O)NCC)NC(=O)[C@H](CCC)NC(=O)[C@H]([C@@H](C)CC)NC(=O)[C@@H]2C[C@@H](O)CN2C(=O)[C@@H]2CCCN2C(=O)[C@H](Cc2ccccc2)NC(=O)[C@H](Cc2ccc(O)cc2)NC(=O)[C@H](CCC(N)=O)NC(=O)[C@H](CCCNC(N)=O)NC1=O [UPAR-146, Pent-[Cys-Cit-Gln-Tyr-Phe-Pro-Hyp-Ile-Nva-Cys]-NHEt] (Pentanoyl-C[Cit]QYFP[Hyp]I[Nva]C-NHEt; disulfide 1-10)	12.6 to 31.6 nM	–	1.58 to 10 nM
CC[C@H](C)[C@@H]1NC(=O)[C@@H](C)NC(=O)[C@@H]2CCCN2C(=O)[C@H](Cc2cccc3ccccc23)NC(=O)[C@H](Cc2ccc(O)cc2)NC(=O)[C@H](CCC(N)=O)NC(=O)[C@H](CCCNC(N)=O)NC(=O)[C@@H](NC(=O)CCC(C)C)CSSC[C@@H](C(N)=O)NC(=O)[C@H](CC(C)C)NC1=O [UPAR-310, iHex-[Cys-Cit-Gln-Tyr-1Ni-Pro-ala-Ile-Leu-Cys]-NH2] ({Pentanoyl(4-Me)}-C[Cit]QY[1Nal]P[dA]ILC-NH2; disulfide 1-10)	≤ 10 nM	–	< 1.58 nM
CCCCC(=O)N[C@H]1CSSC[C@@H](C(N)=O)NC(=O)[C@H](CCC)NC(=O)[C@H]([C@@H](C)CC)NC(=O)[C@@H]2C[C@H](O)CN2C(=O)[C@@H]2CCCN2C(=O)[C@H](Cc2ccccc2)NC(=O)[C@H](Cc2ccc(O)cc2)NC(=O)[C@H](CCCCNC(=O)CN2CCN(CC(=O)O)CCN(CC(=O)O)CCN(CC(=O)O)CC2)NC(=O)[C@H](CCCNC(N)=O)NC1=O [UPAR-214, Pent-[Cys-Cit-Lys(DOTA)-Tyr-Phe-Pro-Chy-Ile-Nva-Cys]-NH2] (Pentanoyl-C[Cit]K(DOTA)YFP[cisHyp]I[Nva]C-NH2; disulfide 1-10)	≤ 10 nM	–	< 1.58 nM
CCCCC(=O)N[C@H]1CSSC[C@@H](C(N)=O)NC(=O)[C@H](CCC)NC(=O)[C@H]([C@@H](C)CC)NC(=O)[C@@H]2C[C@@H](O)CN2C(=O)[C@@H]2CCCN2C(=O)[C@H](c2ccccc2)NC(=O)[C@H](Cc2ccc(O)cc2)NC(=O)[C@H](CCC(N)=O)NC(=O)[C@H](CCCNC(=N)N)NC1=O [UPAR-203, Pent-[Cys-Arg-Gln-Tyr-Phg-Pro-Hyp-Ile-Nva-Cys]-NH2] (Pentanoyl-CRQY[Phg]P[Hyp]I[Nva]C-NH2; disulfide 1-10)	≥ 126 nM	–	10 to 100 nM
CCCCOC(=O)N[C@H]1CSSC[C@@H](C(N)=O)NC(=O)[C@H](CCC)NC(=O)[C@H]([C@@H](C)CC)NC(=O)[C@@H]2C[C@@H](O)CN2C(=O)[C@@H]2C[C@H](F)CN2C(=O)[C@H](Cc2ccccc2)NC(=O)[C@H](Cc2cccnc2)NC(=O)[C@H](CCCCNC(=O)CN2CCN(CC(=O)O)CCN(CC(=O)O)CCN(CC(=O)O)CC2)NC(=O)[C@H]([C@@H](C)O)NC1=O [UPAR-165, Butoc-[Cys-Thr-Lys(DOTA)-Mpa-Phe-4Cfp-Hyp-Ile-Nva-Cys]-NH2] (Butoxycarbonyl-CTK(DOTA)[3Pal]F[Pro(cis-4-F)][Hyp]I[Nva]C-NH2; disulfide 1-10)	≤ 10 nM	–	< 1.58 nM
CCCCC(=O)N[C@H]1CSSCCNC(=O)[C@H](CCC)NC(=O)[C@H]([C@@H](C)CC)NC(=O)[C@@H]2C[C@@H](O)CN2C(=O)[C@@H]2CCCN2C(=O)[C@H](Cc2ccccc2)NC(=O)[C@H](Cc2ccc(O)cc2)NC(=O)[C@H](CCC(N)=O)NC(=O)[C@H](CCCNC(=N)N)NC1=O [UPAR-481, Pent-[Cys-Arg-Gln-Tyr-Phe-Pro-Hyp-Ile-Nva-AET]] (Pentanoyl-CRQYFP[Hyp]I[Nva]-Cysteamide; disulfide 1-C)	≤ 10 nM	< 1.58 nM	–
CCCCC(=O)N[C@H]1CSSC[C@@H](C(N)=O)NC(=O)[C@H](CCC)NC(=O)[C@H]([C@@H](C)CC)NC(=O)[C@H](C)N(C)C(=O)[C@@H]2CCCN2C(=O)[C@H](Cc2ccccc2)NC(=O)[C@H](Cc2ccc(O)cc2)NC(=O)[C@H](CCCCNC(=O)CN2CCN(CC(=O)O)CCN(CC(=O)O)CCN(CC(=O)O)CC2)NC(=O)[C@H](CCCNC(N)=O)NC1=O [UPAR-316, Pent-[Cys-Cit-Lys(DOTA)-Tyr-Phe-Pro-Nma-Ile-Nva-Cys]-NH2] (Pentanoyl-C[Cit]K(DOTA)YFP[NMeA]I[Nva]C-NH2; disulfide 1-10)	12.6 to 31.6 nM	–	1.58 to 10 nM
CCOCCC(=O)N[C@H]1CSSC[C@@H](C(N)=O)NC(=O)[C@H](CC(C)C)NC(=O)[C@H]([C@@H](C)CC)NC(=O)[C@@H](C)NC(=O)[C@@H]2CCCN2C(=O)[C@H](Cc2ccccc2)NC(=O)[C@H](Cc2ccc(O)cc2)NC(=O)[C@H](CCC(N)=O)NC(=O)[C@H](CCCNC(N)=O)NC1=O [UPAR-172, EtOPr-[Cys-Cit-Gln-Tyr-Phe-Pro-ala-Ile-Leu-Cys]-NH2] ({Propanoyl(3-OEt)}-C[Cit]QYFP[dA]ILC-NH2; disulfide 1-10)	≤ 10 nM	–	1.58 to 10 nM
